From patent US20230181703A1, “COMPOSITION COMPRISING PEPSTATIN AND ALGINIC ACID OR A SALT THEREOF, AND USE THEREOF” (DRUGS MINERALS AND GENERICS ITALIA S.R.L. IN FORMA …, priority 2020, published 2023)
Values after ≈ are worked out from the molar mass of the structure shown. Where a SMILES comes first, the peptide text is derived from it. [ ]: non-standard residue; d: D form. The star is where a group is joined. Sta = CC(C)C[C@H](N)[C@@H](O)CC(=O)O; Isovaleryl = CC(C)CC(=O)*

Key:
pepsin = target: T1, pepsin (Sus scrofa, UniProt P00791); experiment: Enzymatic activity of pepsin (adapted Anson method, denatured haemoglobin substrate, absorbance at 280 nm); type: biochemical; conditions: for ΔAX at 280 nm: inhibitor 0.01% (suspension in H2O)
T1 construct: purchased BDH
Experimental: The method used to measure the enzymatic activity of pepsin alone or together with the inhibitory substance (pepstatin), consists of an adaptation of the Anson method [Anson et al, J. Gen. Physiol. 1931, 16, 59] which provides for the use of denatured haemoglobin as substrate. The enzymatic activity was determined after precipitation with trichloroacetic acid of the non-hydrolysed substrate. The activity of the enzyme was determined spectrophotometrically from the concentration of soluble peptides released by the proteolytic action.
T=37° C., pH=1,5, Anm, optical path 1 cm, reaction time 10 minutes. At pH=1.5, in which the experiments were conducted, there is a maximum activity of pepsin.
Haemoglobin 2%, pepsin 0,02%, inhibitor 0.01%.
Substrate: 250 mg of human haemoglobin are weighed in a 10 mL flask, it is brought up to volume with distilled water and left under stirring for 10 minutes in a water bath at 37° C. to obtain a solution 2.5%. The solution is passed through a filter paper to eliminate insoluble residues. 8 mL of the filtrate are taken and the volume is brought up to 10 mL with acidic water so as to have a final pH finale of 1.5 and a solution 2% (w/V).
Enzyme: 5 mg of pepsin are weighed in a 5 mL flask and it is brought up to volume with acidic water (pH=1.5).
Enzyme together with inhibitory substance: 5 mg of pepsin are weighed in a 5 mL flask. 0.5 mg/mL of a solution or suspension at pH=1.5 of the inhibitory substance are prepared separately (checking the pH with a pH meter and correcting it, if necessary, with hydrochloric acid 12 M in an amount such not to change the total volume). […]
0.25 mL of substrate (haemoglobin) are pipetted in a suitable vial and almost entirely submerged in a water bath thermostated at 37° C. It is left under magnetic stirring for 10 minutes at 37° C. 50 microlitres of the enzyme solution (pepsin) or of the enzyme together with the inhibitory substance (pepsin+pepstatin A) are then added and the system is kept under incubation for exactly 10 minutes. 0.5 mL of the trichloroacetic acid solution 5% are added after this period of time and then left for another 5 minutes. Exactly 3 mL of distilled water at pH=1.5 are added into the vial using a graduated pipette; the solution is stirred and filtered using a 0.45 μm syringe filter. An absorption spectrum (with absorbance (A) always below 1) with wavelengths comprised between 300 nm and 250 nm is recorded using a spectrophotometer using the absorbance value at 280 nm as reference.
Blank: 0.25 mL of substrate (haemoglobin) are pipetted in a suitable vial and almost entirely submerged in a water bath thermostated at 37° C. It is left under magnetic stirring for 10 minutes. 50 microlitres 0.5 mg/mL of the inhibitory substance solution (without enzyme) are then added and the system is kept under incubation for exactly 10 minutes. 0.5 mL of the trichloroacetic acid solution 5% are added after this period of time and then left for another 5 minutes.
50 microlitres of solution 1 mg/mL of enzyme without inhibitory substance are the introduced. Exactly 3 mL of distilled water at pH=1.5 are added into the vial using a graduated pipette, then the solution is stirred and filtered using a 0.45 μm syringe filter. An absorbance with wavelengths comprised between 300 nm and 250 nm is recorded using a spectrophotometer using the absorbance value at 280 nm as reference.
Each experiment was repeated at least twice. The final absorbance value (A) at 280 nm was the mean of the absorbance values obtained (with an uncertainty on the values always much lower than 10%). A ΔA, with ΔAx=A280sample substanceX−A280blank substance X and ΔAo=A280sample free pepsin−A280blank free pepsin in the event of absence of the inhibitory substance are associated with the pepsin-inhibiting substance. […]

physchem = conditions: Solubility in ethanol (EtOH)

T1 sequence (P00791 60-385): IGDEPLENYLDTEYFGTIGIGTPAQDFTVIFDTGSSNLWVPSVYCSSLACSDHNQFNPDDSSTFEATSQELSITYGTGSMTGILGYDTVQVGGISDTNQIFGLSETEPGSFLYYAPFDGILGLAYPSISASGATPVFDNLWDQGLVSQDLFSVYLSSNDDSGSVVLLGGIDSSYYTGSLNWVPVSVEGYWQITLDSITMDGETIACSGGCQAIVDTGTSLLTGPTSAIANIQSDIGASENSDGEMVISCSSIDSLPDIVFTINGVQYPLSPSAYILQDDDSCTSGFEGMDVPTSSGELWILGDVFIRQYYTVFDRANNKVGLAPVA

ΔAX at 280 nm (pepsin; pepsin 0.02%, haemoglobin 2%, pH 1.5, 37° C., 10 minutes): 0 | ΔAX at 280 nm (pepsin; pepsin 0.02%, haemoglobin 2%, pH 1.5, 37° C., 10 minutes, listed as Pepstatin): 0 | ΔAX at 280 nm (pepsin; pepsin 0.02%, haemoglobin 2%, pH 1.5, 37° C., 10 minutes, listed as pepstatin): 0.004 | Residual activity with respect to the maximum activity measured (pepsin; inhibitor 0.01%, pepsin 0.02%, haemoglobin 2%, pH 1.5, 37° C., 10 minutes): 0% | Activity of pepsin in the presence of pepstatin 1 μM (pepsin; pepstatin 1 μM diluted in H2O after dissolution in EtOH 1 mg/mL, added to haemoglobin 2% before pepsin, pH 1.5, 10 min (FIG. 3)): total abatement in the activity | Binding between the enzyme and the inhibitor (kinetics study) (pepsin; pepstatin 1 μM in haemoglobin 2%, time scale of the experiment t=10 minutes): immediate binding | Concentrations at which pepsin is inhibited / totally deactivated (pepsin; statement in Conclusions, no picomolar test described): picomolar concentrations | solubility (physchem): 1000 µg/mL (≈ 1460 µM)
Compound: CC(C)CC(=O)N[C@H](C(=O)N[C@H](C(=O)N[C@@H](CC(C)C)[C@@H](O)CC(=O)N[C@@H](C)C(=O)N[C@@H](CC(C)C)[C@@H](O)CC(=O)O)C(C)C)C(C)C [PEPSTATIN, Isovaleryl-L-val-L-val-statyl-L-alanyl-statin] (Isovaleryl-VV[Sta]A[Sta]-OH)
